Experimental findings from patent US9133183B2, “Imidazolidinones and analogs exhibiting anti-cancer and anti-proliferative activities” (Deciphera Pharmaceuticals, LLC, priority 2013, dated 2015) are described below.

pIC50: −log10 of the molar value. Where only a bound is given, the exact number is not on record here.

In experiment [1] the target is unphosphorylated c-FMS kinase (uFMS, Seq. ID no. 1) (Homo sapiens (Human), UniProt P07333). In words: uFMS kinase assay (ADP production coupled to pyruvate kinase/lactate dehydrogenase). It counts as biochemical. The conditions noted are these: enzymatic assay, ATP 500 μM; read-out: uFMS. As to the method: uFMS kinase (Seq. ID No. 1) Assay
In this assay, the oxidation of NADH (thus the decrease at A340 nm) was continuously monitored spectrophometrically. The reaction mixture (100 μL) contained FMS (purchased from Millipore) (10 nM), polyE4Y (1 mg/mL), MgCl2 (10 mM), pyruvate kinase (4 units), lactate dehydrogenase (0.7 units), phosphoenol pyruvate (1 mM), NADH (0.28 mM) and ATP (500 μM) in 90 mM Tris buffer containing 0.2% octyl-glucoside and 1% DMSO, pH 7.5. The inhibition reaction was started by mixing serial diluted test compound with the above reaction mixture. The absorption at 340 nm was monitored continuously for 4 hours at 30° C. on Synergy 2 plate reader. The reaction rate was calculated using the 3 to 4 h time frame. Percent inhibition was obtained by comparison of reaction rate with that of a control (i.e., in the absence of test compound). IC50 values were calculated from a series of percent inhibition values determined at a range of inhibitor concentrations using software routines as implemented in the GraphPad Prism software package.
uFMS Kinase Sequence (Y538-End) Used for Screening (Seq. ID No. 1)

Experiment [2] concerns the target unphosphorylated PDGFRβ kinase (uPDGFRβ, Seq. ID No. 3) (Homo sapiens (Human), UniProt P09619). In words: Unphosphorylated PDGFRβ kinase assay (coupled pyruvate kinase/lactate dehydrogenase). The conditions noted are these: enzymatic assay, ATP 500 μM. It counts as biochemical. As to the method:
Unphosphorylated PDGFRβ (uPDGFRβ) Kinase (Seq. ID No. 3) Assay
Activity of unphosphorylated PDGFRβ kinase (uPDGFRβ, Seq. ID No. 3) was determined by following the production of ADP from the kinase reaction with ATP and poly E4Y as substrates through coupling with the pyruvate kinase/lactate dehydrogenase system (e.g., Schindler et al. Science (2000) 289: 1938-1942). In this assay, the oxidation of NADH (thus the decrease at A340 nm) was continuously monitored spectrophometrically. The reaction mixture (100 μL) contained PDGFRβ (DeCode, 15.7 nM), polyE4Y (2.5 mg/mL), MgCl2 (10 mM), pyruvate kinase (4 units), lactate dehydrogenase (0.7 units), phosphoenol pyruvate (1 mM) and NADH (0.28 mM) and ATP (500 μM) in a 90 mM Tris buffer containing 0.2% octyl-glucoside and 1% DMSO, at pH 7.5. The inhibition reaction was started by mixing serial diluted test compound with the above reaction mixture. The absorption at 340 nm was monitored continuously for 4 h at 30° C. on a Polarstar Optima or Synergy 2 plate reader. The reaction rate was calculated using the 1.5 to 2.5 h time frame. Percent inhibition was obtained by comparison of reaction rate with that of a control (i.e., with no test compound). IC50 values were calculated from a series of percent inhibition values determined at a range of inhibitor concentrations using software routines as implemented in the GraphPad Prism software package.
uPDGFRβ Kinase Sequence (Residues 557-1106) Used for Screening (Seq ID No. 3)

Experiment [3] has as its system M-NFS-60 cells. In words: M-NFS-60 cell proliferation assay (resazurin). The conditions noted are these: 67 h incubation. Type of experiment: cell-based. As to the method: M-NFS-60 cells (catalog #CRL-1838) were obtained from the American Type Culture Collection (ATCC, Manassas, Va.). Briefly, cells were grown in suspension in RPMI 1640 medium supplemented with 10% characterized fetal bovine serum (Invitrogen, Carlsbad, Calif.), 0.05 mM 2-mercaptoethanol, and 20 ng/mL mouse recombinant macrophage colony stimulating factor (M-CSF) at 37° C., 5% CO2, and 95% humidity. Cells were allowed to expand until reaching saturation at which point they were subcultured or harvested for assay use.
M-NFS-60 Cell Proliferation Assay
A serial dilution of test compound was dispensed into a 384-well black clear bottom plate (Corning, Corning, N.Y.). Two thousand five hundred cells were added per well in 50 μL complete growth medium. Plates were incubated for 67 h at 37° C., 5% CO2, and 95% humidity. At the end of the incubation period 10 μL of a 440 μM solution of resazurin (Sigma, St. Louis, Mo.) in PBS was added to each well and incubated for an additional 5 h at 37° C., 5% CO2, and 95% humidity. Plates were read on a Synergy2 reader (Biotek, Winooski, Vt.) using an excitation of 540 nm and an emission of 600 nm. IC50 values were calculated from a series of percent inhibition values determined at a range of inhibitor concentrations using software routines as implemented in the GraphPad Prism software package.

The subject of experiment [4] is osteoclast precursors. Briefly: Osteoclast tartrate-resistant acid phosphatase assay. Type of experiment: cell-based. The conditions noted are these: 7-14 days, RANKL and M-CSF. The procedure: Osteoclast Tartrate-Resistant Acid Phosphatase Assay
A serial dilution of test compound was dispensed into a 384-well black clear bottom plate (Nalge Nunc International, Rochester, N.Y.). Compound was diluted by the addition of DMEM media supplemented with 10% characterized fetal bovine serum (Invitrogen, Carlsbad, Calif.). Diluted compound was transferred to a 384-well black clear bottom plate. Two-thousand five hundred osteoclast precursors (Lonza, Walkersville, Md.) were added per well in growth media containing Receptor Activator of Nuclear Factor Kappa-beta ligand (RANKL) and M-CSF (R&D Systems, Minneapolis, Minn.). Plates were incubated for 7-14 days at 37 degrees Celsius, 5% CO2, and 95% humidity to allow differentiation of osteoclast precursors. At the end of the incubation period, 10 μL of supernatant from each well was transferred to a clear 384-well plate. Tartrate-resistant acid phosphatase activity in the supernatant samples was determined using an acid phosphatase assay kit (Sigma, St. Louis, Mo.). Absorbance was measured at 550 nm using a plate reader. Data was analyzed using Prism software (Graphpad, San Diego, Calif.) to calculate IC50 values.

The target of experiment [5] is unphosphorylated c-KIT kinase (uKIT, Seq. ID no. 2) (Homo sapiens (Human), UniProt P10721). In words: uKit kinase assay (coupled pyruvate kinase/lactate dehydrogenase). Type of experiment: biochemical. The conditions noted are these: enzymatic assay, ATP 2000 μM. As to the method:
uKit Kinase (Seq. ID No. 2) Assay
Activity of unphosphorylated c-KIT kinase (uKIT, Seq. ID no. 2) was determined by following the production of ADP from the KIT kinase reaction with ATP and poly E4Y as substrates through coupling with the pyruvate kinase/lactate dehydrogenase system (e.g., Schindler et al. Science (2000) 289: 1938-1942). In this assay, the oxidation of NADH (thus the decrease at A340 nm) was continuously monitored spectrophometrically. The reaction mixture (100 μl) contained unphosphorylated KIT (12 nM), polyE4Y (1 mg/mL), MgCl2 (10 mM), pyruvate kinase (4 units), lactate dehydrogenase (0.7 units), phosphoenol pyruvate (1 mM), and NADH (0.28 mM) and ATP (2000 μM) in 90 mM Tris buffer containing 0.2% octyl-glucoside and 1% DMSO, pH 7.5. The inhibition reaction was started by mixing serial diluted test compound with the above reaction mixture. The absorption at 340 nm was monitored continuously for 4 hours at 30° C. on Synergy 2 plate reader (BioTech). Reaction rates around 3 to 4 h time frame were used to calculate % inhibitions, from which IC50 values were generated.
uKit with N-Terminal GST Fusion Used for Screening (Seq ID No. 2)

Chain of unphosphorylated PDGFRβ kinase (uPDGFRβ, Seq. ID No. 3) (P09619 557-1106): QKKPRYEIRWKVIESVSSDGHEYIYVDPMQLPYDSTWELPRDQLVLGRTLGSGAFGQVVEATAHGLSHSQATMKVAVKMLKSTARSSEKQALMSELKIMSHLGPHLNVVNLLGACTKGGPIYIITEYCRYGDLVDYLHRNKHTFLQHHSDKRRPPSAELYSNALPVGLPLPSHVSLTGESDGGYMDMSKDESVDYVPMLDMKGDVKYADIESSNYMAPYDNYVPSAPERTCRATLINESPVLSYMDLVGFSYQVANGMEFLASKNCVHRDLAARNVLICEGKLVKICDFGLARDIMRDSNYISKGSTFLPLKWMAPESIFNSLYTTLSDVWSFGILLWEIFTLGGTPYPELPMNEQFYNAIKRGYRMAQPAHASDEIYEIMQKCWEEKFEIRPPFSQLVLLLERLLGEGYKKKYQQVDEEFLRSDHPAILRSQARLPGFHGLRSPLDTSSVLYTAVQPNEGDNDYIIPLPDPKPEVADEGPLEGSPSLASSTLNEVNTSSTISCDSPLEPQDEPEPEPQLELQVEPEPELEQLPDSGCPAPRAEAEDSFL
Chain of unphosphorylated c-FMS kinase (uFMS, Seq. ID no. 1) (P07333 538-972): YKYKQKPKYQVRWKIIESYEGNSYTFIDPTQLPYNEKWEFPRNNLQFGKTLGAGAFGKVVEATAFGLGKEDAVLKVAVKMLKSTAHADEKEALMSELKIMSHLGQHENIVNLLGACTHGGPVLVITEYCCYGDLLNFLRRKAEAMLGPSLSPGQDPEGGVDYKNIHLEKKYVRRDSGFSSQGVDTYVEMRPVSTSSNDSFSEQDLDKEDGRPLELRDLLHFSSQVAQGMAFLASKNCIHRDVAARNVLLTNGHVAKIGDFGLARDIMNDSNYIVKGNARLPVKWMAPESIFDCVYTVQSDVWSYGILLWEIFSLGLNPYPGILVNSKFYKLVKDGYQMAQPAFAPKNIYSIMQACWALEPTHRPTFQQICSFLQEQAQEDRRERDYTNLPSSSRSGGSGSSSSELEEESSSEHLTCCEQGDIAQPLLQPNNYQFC
Chain of unphosphorylated c-KIT kinase (uKIT, Seq. ID no. 2) (P10721 other isoform, or with tags, fused parts or gaps): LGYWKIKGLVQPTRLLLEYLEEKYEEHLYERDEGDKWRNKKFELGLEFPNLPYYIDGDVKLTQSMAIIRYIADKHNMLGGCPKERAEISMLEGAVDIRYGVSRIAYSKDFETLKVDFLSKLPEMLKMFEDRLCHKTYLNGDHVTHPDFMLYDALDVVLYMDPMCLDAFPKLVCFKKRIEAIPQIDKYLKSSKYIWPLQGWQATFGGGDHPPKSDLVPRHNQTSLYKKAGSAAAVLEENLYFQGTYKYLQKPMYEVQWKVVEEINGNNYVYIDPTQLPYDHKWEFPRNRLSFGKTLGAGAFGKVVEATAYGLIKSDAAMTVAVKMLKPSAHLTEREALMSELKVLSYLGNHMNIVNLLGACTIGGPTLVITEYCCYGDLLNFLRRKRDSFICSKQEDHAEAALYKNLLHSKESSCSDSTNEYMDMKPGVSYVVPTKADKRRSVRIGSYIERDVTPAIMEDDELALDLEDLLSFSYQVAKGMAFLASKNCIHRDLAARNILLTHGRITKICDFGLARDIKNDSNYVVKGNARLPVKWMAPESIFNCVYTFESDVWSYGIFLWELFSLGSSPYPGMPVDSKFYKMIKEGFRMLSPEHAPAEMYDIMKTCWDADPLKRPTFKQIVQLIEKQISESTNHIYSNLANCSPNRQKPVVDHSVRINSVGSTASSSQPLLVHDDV

As to `Cn1cc(-c2cc(Oc3ccc(NC(=O)N4CCN([C@@H]5CCOC5)C4=O)nc3)ccn2)cn1` [Example 27, (R)—N-(5-((2-(1-methyl-1H-pyrazol-4-yl)pyridin-4-yl)oxy)pyridin-2-yl)-2-oxo-3-(tetrahydrofuran-3-yl)imidazolidine-1-carboxamide], the pIC50 in experiment [1] was over 8.00; in experiment [2], under 6.00; in experiment [3], 7.00 to 8.00; in experiment [4] it was over 8.00.

With `Cn1cc(-c2cc(Oc3ccc(NC(=O)N4CC(C)(C)N(C5CCCCC5)C4=O)nc3)ccn2)cn1` [Example 31, 3-cyclohexyl-4,4-dimethyl-N-(5-((2-(1-methyl-1H-pyrazol-4-yl)pyridin-4-yl)oxy)pyridin-2-yl)-2-oxoimidazolidine-1-carboxamide], the pIC50 in experiment [1] was 7.00 to 8.00; in experiment [5], 6.00 to 7.00; in experiment [2], under 6.00; in experiment [3], under 6.00.

As for `Cc1nc(NC(=O)N2CC(C)(C)N(C3CCCCC3)C2=O)ccc1Oc1ccnc(-c2cnn(C)c2)c1` [Example 32, 3-cyclohexyl-4,4-dimethyl-N-(6-methyl-5-((2-(1-methyl-1H-pyrazol-4-yl)pyridin-4-yl)oxy)pyridin-2-yl)-2-oxoimidazolidine-1-carboxamide], the pIC50 in experiment [1] was 6.00 to 7.00; in experiment [5], 6.00 to 7.00; in experiment [2], under 6.00.

`COCCCN1CCN(C(=O)Nc2cc(Cl)c(Oc3ccnc(-c4cnn(C)c4)c3)cc2F)C1=O` [Example 103, N-(5-chloro-2-fluoro-4-((2-(1-methyl-1H-pyrazol-4-yl)pyridin-4-yl)oxy)phenyl)-3-(3-methoxypropyl)-2-oxoimidazolidine-1-carboxamide]: the pIC50 in experiment [1] is 7.00 to 8.00; in experiment [2] it was under 6.00; in experiment [3] it was 6.00 to 7.00; in experiment [4] (Osteoclast), 6.00 to 7.00.

Regarding `Cn1cc(-c2cc(Oc3cc(F)c(NC(=O)N4CCN(C5COC5)C4=O)cc3Cl)ccn2)cn1` [Example 104, N-(5-chloro-2-fluoro-4-((2-(1-methyl-1H-pyrazol-4-yl)pyridin-4-yl)oxy)phenyl)-3-(oxetan-3-yl)-2-oxoimidazolidine-1-carboxamide], the pIC50 was 6.00 to 7.00 in experiment [1], under 6.00 in experiment [2], under 6.00 in experiment [3] and 6.00 to 7.00 in experiment [4] (Osteoclast).

Regarding `COC[C@H](C)N1CCN(C(=O)Nc2cc(Cl)c(Oc3ccnc(-c4cnn(C)c4)c3)cc2F)C1=O` [Example 105, (S)—N-(5-chloro-2-fluoro-4-((2-(1-methyl-1H-pyrazol-4-yl)pyridin-4-yl)oxy)phenyl)-3-(1-methoxypropan-2-yl)-2-oxoimidazolidine-1-carboxamide], the pIC50 was 7.00 to 8.00 in experiment [1], under 6.00 in experiment [2], 6.00 to 7.00 in experiment [3] and 7.00 to 8.00 in experiment [4] (Osteoclast).

`Cn1cc(-c2cc(Oc3cc(F)c(NC(=O)N4CCN(CCOC(F)(F)F)C4=O)cc3Cl)ccn2)cn1` [Example 106, N-(5-chloro-2-fluoro-4-((2-(1-methyl-1H-pyrazol-4-yl)pyridin-4-yl)oxy)phenyl)-2-oxo-3-(2-(trifluoromethoxy)ethyl)imidazolidine-1-carboxamide]: the pIC50 in experiment [1] was 7.00 to 8.00; in experiment [2] it was under 6.00; in experiment [3], under 6.00; in experiment [4] (Osteoclast) it was 6.00 to 7.00.

Consider `Cn1cc(-c2cc(Oc3cc(F)c(NC(=O)N4CCN(C5CCCCC5)C4=O)cc3Cl)ccn2)cn1` [Example 107, N-(5-chloro-2-fluoro-4-((2-(1-methyl-1H-pyrazol-4-yl)pyridin-4-yl)oxy)phenyl)-3-cyclohexyl-2-oxoimidazolidine-1-carboxamide], for which the pIC50 in experiment [1] was over 8.00; in experiment [2], 6.00 to 7.00; in experiment [3], 7.00 to 8.00; in experiment [4] (Osteoclast), 7.00 to 8.00.

As for `COC(C)(C)CCN1CCN(C(=O)Nc2cc(Cl)c(Oc3ccnc(-c4cnn(C)c4)c3)cc2F)C1=O` [Example 108, N-(5-chloro-2-fluoro-4-((2-(1-methyl-1H-pyrazol-4-yl)pyridin-4-yl)oxy)phenyl)-3-(3-methoxy-3-methylbutyl)-2-oxoimidazolidine-1-carboxamide], the pIC50 was 7.00 to 8.00 in experiment [1], under 6.00 in experiment [2], 6.00 to 7.00 in experiment [3] and 6.00 to 7.00 in experiment [4] (Osteoclast).

On to `Cn1cc(-c2cc(Oc3cc(F)c(NC(=O)N4CCN(C5CCC(F)(F)CC5)C4=O)cc3Cl)ccn2)cn1` [Example 110, N-(5-chloro-2-fluoro-4-((2-(1-methyl-1H-pyrazol-4-yl)pyridin-4-yl)oxy)phenyl)-3-(4,4-difluorocyclohexyl)-2-oxoimidazolidine-1-carboxamide], for which the pIC50 in experiment [1] is over 8.00; in experiment [2] it was under 6.00; in experiment [3] it was 7.00 to 8.00.

Regarding `Cn1cc(-c2cc(Oc3cc(F)c(NC(=O)N4CCN(C5CCCC5)C4=O)cc3Cl)ccn2)cn1` [Example 111, N-(5-chloro-2-fluoro-4-((2-(1-methyl-1H-pyrazol-4-yl)pyridin-4-yl)oxy)phenyl)-3-cyclopentyl-2-oxoimidazolidine-1-carboxamide], the pIC50 was over 8.00 in experiment [1], under 6.00 in experiment [2], 7.00 to 8.00 in experiment [3] and over 8.00 in experiment [4] (Osteoclast).
